Laboratory results reported in patent publication US20260250290A1 (BRISTOL-MYERS SQUIBB COMPANY, priority 2023, published 2026).
Counter-ions that a name gives are not always drawn.

Molecular target: T1, full length SGK1 (Homo sapiens, UniProt O00141)
T1 construct: 125 μM full length SGK1 (Life Technologies Part #PR7358A); purchased Life Technologies PR7358A
T1 sequence (O00141 1-431): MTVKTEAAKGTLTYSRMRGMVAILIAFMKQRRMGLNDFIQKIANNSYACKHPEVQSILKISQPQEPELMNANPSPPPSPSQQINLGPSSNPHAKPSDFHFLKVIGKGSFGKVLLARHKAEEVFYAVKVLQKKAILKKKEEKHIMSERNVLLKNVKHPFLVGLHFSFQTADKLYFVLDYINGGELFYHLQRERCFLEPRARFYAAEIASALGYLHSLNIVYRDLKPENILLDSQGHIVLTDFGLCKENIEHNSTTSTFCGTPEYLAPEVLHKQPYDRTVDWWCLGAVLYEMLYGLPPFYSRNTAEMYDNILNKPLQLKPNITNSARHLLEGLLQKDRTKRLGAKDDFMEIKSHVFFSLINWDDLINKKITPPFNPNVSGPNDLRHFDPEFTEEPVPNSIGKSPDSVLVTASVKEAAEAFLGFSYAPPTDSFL
Assay: SGK1 inhibition Assay A (Caliper LabChip electrophoretic separation of fluorescent peptide substrate and phosphorylated product)
Format: biochemical
Settings: Assay A; 20 μM ATP, 40 min incubation; read-out: SGK1 IC50

SMILES | IC50
CC(=O)N1CC=C(c2cc(N3CCC[C@@H](NC(=O)c4sc(Cl)cc4OCCN(C)C)C3)c3c(N)ncnn23)CC1 [Example 180, (R)—N-(1-(7-(1-acetyl-1,2,3,6-tetrahydropyridin-4-yl)-4-aminopyrrolo[2,1-f][1,2,4]triazin-5-yl)piperidin-3-yl)-5-chloro-3-(2-(dimethylamino)ethoxy)thiophene-2-carboxamide 2 TFA] | 47 nM
CS(=O)(=O)c1ccc(-c2cc(N3CCC[C@@H](NC(=O)C4CCCCC4)C3)c3c(N)ncnn23)cc1 [Example 16, (R)-N-(1-(4-amino-7-(4-(methylsulfonyl)phenyl)pyrrolo[2,1-f][1,2,4]triazin-5-yl)piperidin-3-yl) cyclohexanecarboxamide] | 324 nM
CC(=O)N1CC=C(c2cc(N3CCC[C@@H](NC(=O)c4sc(C(F)F)cc4N4CC5(COC5)C4)C3)c3c(N)ncnn23)C1 [Example 315, (R)-N-(1-(7-(1-acetyl-2,5-dihydro-1H-pyrrol-3-yl)-4-aminopyrrolo[2,1-f][1,2,4]triazin-5-yl)piperidin-3-yl)-5-(difluoromethyl)-3-(2-oxa-6-azaspiro[3.3]heptan-6-yl)thiophene-2-carboxamide] | 65 nM
CC(=O)N1CC=C(c2cc(N3CCC[C@@H](NC(=O)c4cc(-c5ccccc5)ncn4)C3)c3c(N)ncnn23)C1 [Example 492, (R)-N-(1-(7-(1-acetyl-2,5-dihydro-1H-pyrrol-3-yl)-4-aminopyrrolo[2,1-f][1,2,4]triazin-5-yl)piperidin-3-yl)-6-phenylpyrimidine-4-carboxamide] | 53 nM
COc1ncccc1C(=O)N[C@@H]1CCCN(c2cc(-c3ccc(S(C)(=O)=O)cc3)n3ncnc(N)c23)C1 [Example 60, (R)-N-(1-(4-amino-7-(4-(methylsulfonyl)phenyl)pyrrolo[2,1-f][1,2,4]triazin-5-yl)piperidin-3-yl)-2-methoxynicotinamide] | 130 nM
CC(=O)N1CC=C(c2cc(N3CCC[C@@H](NC(=O)c4sc(Cl)cc4OCCNCC(F)F)C3)c3c(N)ncnn23)C1 [Example 301, (R)-N-(1-(7-(1-acetyl-2,5-dihydro-1H-pyrrol-3-yl)-4-aminopyrrolo[2,1-f][1,2,4]triazin-5-yl)piperidin-3-yl)-5-chloro-3-(2-((2,2-difluoroethyl)amino)ethoxy)thiophene-2-carboxamide] | 14 nM
Nc1ncnn2c(C3=CCC(F)(F)CC3)cc(N3CCC[C@@H](NC(=O)c4ccc(Cl)s4)C3)c12 [Example 239] | 43 nM
Nc1ncnn2c(-c3ccc(Cl)nc3)cc(N3CCC[C@@H](NC(=O)c4ccc(Cl)s4)C3)c12 [Example 236] | 19 nM
Cc1nnc2ccc(-c3cc(N4CCC[C@@H](NC(=O)c5ccc(Cl)s5)C4)c4c(N)ncnn34)cn12 [Example 254] | 23 nM
COc1cccc(C(=O)N[C@@H]2CCCN(c3cc(C4=CCN(C(C)=O)C4)n4ncnc(N)c34)C2)n1 [Example 715, (R)-N-(1-(7-(1-acetyl-2,5-dihydro-1H-pyrrol-3-yl)-4-aminopyrrolo[2,1-f][1,2,4]triazin-5-yl)piperidin-3-yl)-6-methoxypicolinamide] | 22 nM
CS(=O)(=O)c1ccc(-c2cc(N3CC[C@@H](NC(=O)c4ccc(Cl)s4)C3)c3c(N)ncnn23)cc1 [Example 137, (R)—N-(1-(4-amino-7-(4-(methylsulfonyl)phenyl)pyrrolo[2,1-f][1,2,4]triazin-5-yl)pyrrolidin-3-yl)-5-chlorothiophene-2-carboxamide, TFA] | 143 nM
Nc1ncnn2c(-c3ccc(OC(F)F)nc3)cc(N3CCC[C@@H](NC(=O)c4ccc(Cl)s4)C3)c12 [Example 538, (R)-N-(1-(4-amino-7-(6-(difluoromethoxy)pyridin-3-yl)pyrrolo[2,1-f][1,2,4]triazin-5-yl)piperidin-3-yl)-5-chlorothiophene-2-carboxamide] | 20 nM
COc1ccccc1C(=O)N[C@@H]1CCCN(c2cc(-c3ccc(S(C)(=O)=O)cc3)n3ncnc(N)c23)C1 [Example 49, (R)-N-(1-(4-amino-7-(4-(methylsulfonyl)phenyl)pyrrolo[2,1-f][1,2,4]triazin-5-yl)piperidin-3-yl)-2-methoxybenzamide] | 43 nM
Nc1ncnn2c(-c3ccc4c(c3)C(=O)NC4)cc(N3CCC[C@@H](NC(=O)c4ccc(Cl)s4)C3)c12 [Example 219, (R)-N-(1-(4-amino-7-(3-oxoisoindolin-5-yl)pyrrolo[2,1-f][1,2,4]triazin-5-yl)piperidin-3-yl)-5-chlorothiophene-2-carboxamide] | 68 nM
CS(=O)(=O)c1ccc(-c2cc(N3CCC[C@@H](NC(=O)Cc4ccccc4)C3)c3c(N)ncnn23)cc1 [Example 14, (R)-N-(1-(4-amino-7-(4-(methylsulfonyl)phenyl)pyrrolo[2,1-f][1,2,4]triazin-5-yl)piperidin-3-yl)-2-phenylacetamide, TFA] | 941 nM

Compounds with a lower IC50, results first:

IC50 | SMILES
3 nM | CN(C)CCOc1cc(Cl)sc1C(=O)N[C@@H]1CCCN(c2cc(C3=CCN(C(=O)c4ncco4)C3)n3ncnc(N)c23)C1 [Example 908, (R)-N-(1-(4-amino-7-(1-(oxazole-2-carbonyl)-2,5-dihydro-1H-pyrrol-3-yl)pyrrolo[2,1-f][1,2,4]triazin-5-yl)piperidin-3-y1)-5-chloro-3-(2-(dimethylamino)ethoxy)thiophene-2-carboxamide]
12 nM | N#Cc1ccc(-c2cc(N3CCC[C@@H](NC(=O)c4sc(Cl)cc4OC4CCNC4)C3)c3c(N)ncnn23)cn1 (stereo partly drawn) [Example 637, N-((R)-1-(4-amino-7-(6-cyanopyridin-3-yl)pyrrolo[2,1-f][1,2,4]triazin-5-yl)piperidin-3-y1)-5-chloro-3-(pyrrolidin-3-yloxy)thiophene-2-carboxamide]
4 nM | COC(=O)N1CC=C(c2cc(N3CCC[C@@H](NC(=O)c4sc(Cl)cc4OCCN(C)C)C3)c3c(N)ncnn23)C1 [Example 173, methyl (R)-3-(4-amino-5-(3-(5-chloro-3-(2-(dimethylamino)ethoxy)thiophene-2-carboxamido)piperidin-1-yl)pyrrolo[2,1-f][1,2,4]triazin-7-yl)-2,5-dihydro-1H-pyrrole-1-carboxylate, 2 TFA]
13 nM | COC(=O)N1CC=C(c2cc(N3CCC[C@@H](NC(=O)c4sc(C(F)F)cc4N4CCOCC4)C3)c3c(N)ncnn23)C1 [Example 321, Methyl (R)-3-(4-amino-5-(3-(5-(difluoromethyl)-3-morpholinothiophene-2-carboxamido)piperidin-1-yl)pyrrolo[2,1-f][1,2,4]triazin-7-yl)-2,5-dihydro-1H-pyrrole-1-carboxylate]
7 nM | COC(=O)N1CC=C(c2cc(N3CCC[C@@H](NC(=O)c4sc5ccc(F)cc5c4OC4CCNCC4)C3)c3c(N)ncnn23)C1 [Example 686, methyl (R)-3-(4-amino-5-(3-(5-fluoro-3-(piperidin-4-yloxy)benzo[b]thiophene-2-carboxamido)piperidin-1-yl)pyrrolo[2,1-f][1,2,4]triazin-7-yl)-2,5-dihydro-1H-pyrrole-1-carboxylate]
11 nM | CC(=O)N1CC=C(c2cc(N3CCCC(NC(=O)c4sc(Cl)cc4OC4CC5CC4CN5C(C)C)C3)c3c(N)ncnn23)C1 (single isomer, unassigned) [Example 610]
3 nM | COC(=O)N1CC=C(c2cc(N3CCC[C@@H](NC(=O)c4sc(Cl)cc4OC4CCNC4)C3)c3c(N)ncnn23)C1 (stereo partly drawn) [Example 570, Methyl 3-(4-amino-5-((3R)-3-(5-chloro-3-(pyrrolidin-3-yloxy)thiophene-2-carboxamido)piperidin-1-yl)pyrrolo[2,1-f][1,2,4]triazin-7-yl)-2,5-dihydro-1H-pyrrole-1-carboxylate]
1 nM | Nc1ncnn2c(C3=CCN(C(=O)c4cnco4)C3)cc(N3CCC[C@@H](NC(=O)c4ccc(Cl)s4)C3)c12 [Example 890, (R)-N-(1-(4-amino-7-(1-(oxazole-5-carbony1)-2,5-dihydro-1H-pyrrol-3-y1)pyrrolo[2,1-f][1,2,4]triazin-5-yl)piperidin-3-y1)-5-chlorothiophene-2-carboxamide]
4 nM | CC(=O)N1CC=C(c2cc(N3CCC[C@@H](NC(=O)c4sc(Cl)cc4OCC4CCCN4)C3)c3c(N)ncnn23)C1 (single isomer, unassigned) [Example 391E]
10 nM | COc1cscc1C(=O)N[C@@H]1CCCN(c2cc(C3=CCN(C(C)=O)C3)n3ncnc(N)c23)C1 [Example 721, (R)-N-(1-(7-(1-acetyl-2,5-dihydro-1H-pyrrol-3-yl)-4-aminopyrrolo[2,1-f][1,2,4]triazin-5-yl)piperidin-3-yl)-4-methoxythiophene-3-carboxamide]
11 nM | CC(=O)N1CC=C(c2cc(N3CCC[C@@H](NC(=O)c4cccc(OCCN5CCN(C)CC5)n4)C3)c3c(N)ncnn23)C1 [Example 701, (R)-N-(1-(7-(1-acetyl-2,5-dihydro-1H-pyrrol-3-yl)-4-aminopyrrolo[2,1-f][1,2,4]triazin-5-yl)piperidin-3-yl)-6-(2-(4-methylpiperazin-1-yl)ethoxy)picolinamide]
12 nM | Cc1cc(C(=O)N[C@@H]2CCCN(c3cc(C4=CCN(S(C)(=O)=O)C4)n4ncnc(N)c34)C2)ccn1 [Example 116, (R)—N-(1-(4-amino-7-(1-(methylsulfonyl)-2,5-dihydro-1H-pyrrol-3-yl)pyrrolo[2,1-f][1,2,4]triazin-5-yl)piperidin-3-yl)-2-methylisonicotinamide]
